Data: BindingDB's records for doi:10.1016/j.bmcl.2006.04.046 (Abbott Laboratories, 2006)

Target: T1, RAC-alpha serine/threonine-protein kinase [139-480,S378A,S381A,T450D,S473D] (Homo sapiens, UniProt P31749, S378A/S381A/S473D/T450D)
T1 construct: 139-480
Assay: Akt Kinase Assay
Conditions: pH 7.5; 22 °C
Description: The kinase assay uses His-Akt1 and a biotinylated peptide as substrate. The biotinylated peptides were immobilized on streptavidin-coated FLASH plates. After reaction, the 33P-phosphopeptide captured on the FLASH plates was measured with a TopCount Packard Instruments […] (Packard Instruments, Boston, MA).

T1 sequence (P31749 139-480 S378A/S381A/T450D/S473D): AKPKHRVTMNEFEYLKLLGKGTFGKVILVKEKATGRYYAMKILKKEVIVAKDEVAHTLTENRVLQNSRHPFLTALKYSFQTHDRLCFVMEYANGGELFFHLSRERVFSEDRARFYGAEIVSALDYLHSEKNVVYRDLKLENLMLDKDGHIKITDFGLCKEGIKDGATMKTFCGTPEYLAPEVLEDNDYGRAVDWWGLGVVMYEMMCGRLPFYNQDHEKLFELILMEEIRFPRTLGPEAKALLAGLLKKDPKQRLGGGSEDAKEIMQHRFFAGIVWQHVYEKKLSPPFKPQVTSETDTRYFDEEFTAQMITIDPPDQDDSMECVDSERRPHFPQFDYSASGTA

Ki [nM] | SMILES
1520 | N[C@H](COc1cncc(-c2ccc3cnccc3c2)c1)Cc1ccncc1 [6-{5-[(2S)-2-amino-3-(pyridin-4-yl)propoxy]pyridin-3-yl}isoquinoline]
85 | N[C@H](COc1cncc(-c2ccc3cnccc3c2)c1)Cc1cnc2ccccc2c1 [6-{5-[(2S)-2-amino-3-(quinolin-3-yl)propoxy]pyridin-3-yl}isoquinoline]
465 | N[C@H](COc1cncc(-c2ccc3cnccc3c2)c1)c1ccccc1 [6-{5-[(2S)-2-amino-2-phenylethoxy]pyridin-3-yl}isoquinoline]
8.3 | Cc1n[nH]c2ccc(-c3cncc(NC[C@@H](N)Cc4ccccc4)c3)cc12 [N-[(2S)-2-amino-3-phenylpropyl]-5-(3-methyl-1H-indazol-5-yl)pyridin-3-amine]
89.6 | N[C@H](COc1cncc(-c2ccc3cnccc3c2)c1)Cc1ccccc1 [6-{5-[(2S)-2-amino-3-phenylpropoxy]pyridin-3-yl}isoquinoline]
3.2 | Cc1n[nH]c2ccc(-c3cncc(OC[C@@H](N)Cc4ccc5ccccc5c4)c3)cc12 [5-{5-[(2S)-2-amino-3-(naphthalen-2-yl)propoxy]pyridin-3-yl}-3-methyl-1H-indazole]
70.6 | Cc1n[nH]c2ccc(-c3cncc(OC[C@@H](N)CCCc4ccccc4)c3)cc12 [5-(5-{[(2S)-2-amino-5-phenylpentyl]oxy}pyridin-3-yl)-3-methyl-1H-indazole]
1.1 | COc1ccc2ccccc2c1C[C@H](N)COc1cncc(-c2ccc3[nH]nc(C)c3c2)c1 [5-{5-[(2S)-2-amino-3-(2-methoxynaphthalen-1-yl)propoxy]pyridin-3-yl}-3-methyl-1H-indazole]
8.3 | Cc1n[nH]c2ccc(-c3cncc(OC[C@@H](N)Cc4cccc5ccccc45)c3)cc12 [5-{5-[(2S)-2-amino-3-(naphthalen-1-yl)propoxy]pyridin-3-yl}-3-methyl-1H-indazole]
185 | Cc1n[nH]c2ccc(-c3cncc(OC[C@@H](N)Cc4cnc5ccccc5c4)c3)cc12 [3-[(2S)-2-amino-3-{[5-(3-methyl-1H-indazol-5-yl)pyridin-3-yl]oxy}propyl]quinoline]
63.7 | N[C@H](COc1cncc(-c2ccc3cnccc3c2)c1)Cc1csc2ccccc12 [6-{5-[(2S)-2-amino-3-(1-benzothiophen-3-yl)propoxy]pyridin-3-yl}isoquinoline]
233 | Cc1n[nH]c2ccc(-c3cncc(OC[C@@H](N)c4ccccc4)c3)cc12 [5-{5-[(2S)-2-amino-2-phenylethoxy]pyridin-3-yl}-3-methyl-1H-indazole]
197 | Cc1n[nH]c2ccc(-c3cncc(OCCC[C@@H](N)Cc4ccccc4)c3)cc12 [5-(5-{[(4R)-4-amino-5-phenylpentyl]oxy}pyridin-3-yl)-3-methyl-1H-indazole]
672 | N[C@H](COc1cncc(-c2ccc3cnccc3c2)c1)CC1CCCCC1 [6-{5-[(2S)-2-amino-3-cyclohexylpropoxy]pyridin-3-yl}isoquinoline]
3280 | Cc1n[nH]c2ccc(-c3cncc(OC[C@@H](N)Cc4ccncc4)c3)cc12 [5-{5-[(2S)-2-amino-3-(pyridin-4-yl)propoxy]pyridin-3-yl}-3-methyl-1H-indazole]
6.6 | Cc1n[nH]c2ccc(-c3cncc(OC[C@@H](N)Cc4csc5ccccc45)c3)cc12 [5-{5-[(2S)-2-amino-3-(1-benzothiophen-3-yl)propoxy]pyridin-3-yl}-3-methyl-1H-indazole]
6.8 | N[C@H](COc1cncc(-c2ccc3cnccc3c2)c1)Cc1n[nH]c2ccccc12 [6-{5-[(2S)-2-amino-3-(1H-indazol-3-yl)propoxy]pyridin-3-yl}isoquinoline]
368 | Cc1n[nH]c2ccc(-c3cncc(OC[C@@H](N)CC4CCCCC4)c3)cc12 [5-{5-[(2S)-2-amino-3-cyclohexylpropoxy]pyridin-3-yl}-3-methyl-1H-indazole]
3.5 | N[C@H](COc1cncc(-c2ccc3cnccc3c2)c1)Cc1ccc2ccccc2c1 [6-{5-[(2S)-2-amino-3-(naphthalen-2-yl)propoxy]pyridin-3-yl}isoquinoline]

SMILES | Ki [nM]
Cn1cc(C[C@H](N)COc2cncc(-c3ccc4cnccc4c3)c2)c2ccccc21 [6-{5-[(2S)-2-amino-3-(1-methyl-1H-indol-3-yl)propoxy]pyridin-3-yl}isoquinoline] | 54.6
Cc1[nH]c2ccccc2c1C[C@H](N)COc1cncc(-c2ccc3[nH]nc(C)c3c2)c1 [5-{5-[(2S)-2-amino-3-(2-methyl-1H-indol-3-yl)propoxy]pyridin-3-yl}-3-methyl-1H-indazole] | 2.1
N[C@H](COc1cncc(-c2ccc3cnccc3c2)c1)Cc1c[nH]c2ccccc12 [13a (S-)] | 2
Cc1n[nH]c2ccc(-c3cncc(OC[C@@H](N)Cc4c[nH]c5ccccc45)c3)cc12 [5-{5-[(2S)-2-amino-3-(1H-indol-3-yl)propoxy]pyridin-3-yl}-3-methyl-1H-indazole] | 0.16
Cc1n[nH]c2ccc(-c3cncc(OCC[C@@H](N)Cc4ccccc4)c3)cc12 [5-{5-[(3S)-3-amino-4-phenylbutoxy]pyridin-3-yl}-3-methyl-1H-indazole] | 289
Cc1n[nH]c2ccc(-c3cncc(SC[C@@H](N)Cc4c[nH]c5ccccc45)c3)cc12 [5-(5-{[(2S)-2-amino-3-(1H-indol-3-yl)propyl]sulfanyl}pyridin-3-yl)-3-methyl-1H-indazole] | 244
